According to publication PMC6114901, “An automated screening method for detecting compounds with goitrogenic activity using transgenic zebrafish embryos” (PLoS ONE, 2018):
“Also recorded” adds a separate entry of the source.

Tests used:
in vivo = conditions: zebrafish, in vivo
[1] = tested on: thyroglobulin (tg:mCherry reporter gene); assay: animal or person
Description: In order to avoid interference of test chemicals with early thyroid gland development, zebrafish embryos were cultured in exposure medium until 48 hours post fertilization (hpf). Subsequently, they were exposed to seven known thyroid endocrine disrupters for 3 days (48 to 120 hpf). The non-goitrogenic compound 3,4-dichloroaniline, that is used as reference compound in the zebrafish acute embryo toxicity test was used as negative control. […] No solvents were used. […] Five concentrations and one control were tested per compound and replicate. In the second replicate the range of concentration was adjusted to improve fitting of concentration-response curves. […] Given the lack of appropriate spectral properties stability of exposure concentrations was not analysed for potassium perchlorate. Embryos were kept in the incubator at 26°C and a 14:10 hours light:dark cycle. The exposure was conducted in crystallisation dishes covered with watchmaker glasses with 30 embryos in 30 ml exposure medium (for exposure medium refer to [26]).
Embryos were positioned ventrally toward the microscope objective. Per embryo a bright field image, an autofocus fluorescence image and a Z-stack of 9 images were obtained. The Z-stack was required in case of autofocus failure and manual selection of the focal plane. Fluorescence images were obtained with 400 ms of fluorescent light exposure at maximal light intensity and a gain of 1. […] However, care was taken, that at least 10 images per concentration and replicates were assessed. To avoid a time bias during the analysis the sequence of wells for analysis was arranged in order to obtain a uniform distribution over the entire period of analysis.
The images were analysed using a KNIME workflow (Version 3.3.3., [29]) with the extension “KNIME image processing”. In brief, images were loaded into the workflow and the background was removed automatically using the “rolling ball” procedure of the image J plugin (rolling ball size set to 50 pixels). Subsequently the area containing the thyroid gland was manually selected by drawing a rectangle around the appropriate region using the interactive annotation node. […] If possible the autofocus images were used. In case that the thyroid gland was out of focus due to the presence of autofluorescing pigment cells, an appropriate image from the Z-stack was selected. All subsequent steps were conducted without any user interaction. […] Finally the sum of pixel (reflecting area of the thyroid gland and intensity of fluorescence) was calculated for the labeled area and used as a proxy of fluorescence intensity (see Fig 1 for an overview of the workflow). For each replicate the sum was of pixels was normalized by setting controls to the value of one. For data of individual embryos see S4 Table. The KNIME workflow used for image analysis is provided as supplement file (S1 Workflow).
To characterize the potency of the investigated goitrogenic compounds, we calculated EC50 values of tg:mcherry fluorescence using the pixel sum obtained from image analysis. For each replicate the fluorescence intensity was normalized by dividing the mean fluorescence intensity of each concentration with the mean control fluorescence intensity. Concentration-response curves of tgmcherry fluorescence were fitted to the data using the Hill-slope equation (Eq 1) and used to estimate EC50 values.
The parameter Min was set to 1 and the slope (p) and the maximum fluorescence (Max) were estimated.

[2] = ref chemspider (http://www.chemspider.com); cited from earlier work
[3] = tested on: thyroid hormone levels (T4); conditions: ref Thienpont et al. [13], cited from earlier work

Nc1ccc(Cl)c(Cl)c1 [3,4-DCA, 3,4-dichloroaniline]
LC50 (in vivo; LC50 (48–120 hpf), mortality, embryos exposed 48–120 hpf): 29.4 µM | LC50 (in vivo; LC50, mortality after 48 h of exposure, S2 Fig, unit inferred): 319 µM | LC50 (in vivo; LC50, mortality after 72 h of exposure, S2 Fig, unit inferred): 59.4 µM | effect on tg:mCherry fluorescence ([1]; zebrafish, in vivo): decreased the fluorescence signal; also recorded: did not induce tg:mCherry fluorescence but led to a concentration dependent reduction in fluorescence | Log D (pH 7.4) [2]: 2.6

[K+].[O-][Cl+3]([O-])([O-])[O-] [Potassium perchlorate, potassium perchlorate]
Normalised mean pixel sum ([1]; 0.13 µM, replicate 2): 0.90 | Normalised mean pixel sum ([1]; 0.493827 µM, replicate 1): 1.06 | Normalised mean pixel sum ([1]; 1.91 µM, replicate 2): 1.30 | Normalised mean pixel sum ([1]; 7.40741 µM, replicate 1): 0.86 | Normalised mean pixel sum ([1]; 29 µM, replicate 2): 1.75 | Normalised mean pixel sum ([1]; 111.111 µM, replicate 1): 1.38 | Normalised mean pixel sum ([1]; 430 µM, replicate 2): 1.97 | Normalised mean pixel sum ([1]; 1666.67 µM, replicate 1): 2.55 | Normalised mean pixel sum ([1]; 6455 µM, replicate 2): 2.16 | Slope ([1]; Hill slope of tg:mCherry concentration-response curve): 0.69 | BMD 20 ([1]; concentration at which a 20% increase of tg:mCherry fluorescence was observed): 37.6 µM | EC50 ([1]; read-out: EC50 (tg:mCherry induction), exposure 48–120 hpf, Hill-slope model): 137 µM | TDI ([1]; thyroid disruption index = LC50/EC50 tg:mCherry induction): 241 | EC50 ([3]; read-out: EC50 T4 reduction, reduction of thyroid hormone levels (immunostaining)): 2.5 µM | TDI (T4) ([3]; thyroid disruption index based on T4 reduction): 6030
